Data reported in patent publication US5053404A, “Novel steroid derivatives, pharmaceutical compositions containing them and process for preparing same” (Richter Gedeon Vegyeszeti Gyar R. T., priority 1989, dated 1991).

Key:
local granuloma sac = test: Local granuloma sac model, exudate (antiinflammatory effect); assay type: in vivo, rat; conditions: for Exudate / Inhibition (decrease in volume of exudate): 10th day; for Inhibition (decrease in volume of exudate): vs control; for Relative activity: relative to budesonide = 100, on 2.00 μg/sac line
Protocol: (§1) 3) The local granuloma sac model
This method was used to investigate the antiexudative action of the topically administered glucocorticoids.
Groups consisting of 10 female RG Hann Wistar rats each weighing 130 to 150 g were used. […] After 5 days the content of the sac was removed by suction and once 3 doses each of the glucocorticoids to be tested or budesonide respectively, in a volume of 0.5 ml suspension in Tween 80 were administered by an injection syringe. On the 10th day following the start of the experiment the animals were sacrificed and the exudate liquid of the sac (expressed as ml) was measured. The percentage of the antiinflammatory effect was calculated based on the decrease in the volume of exudate related to that of the control.

thymus [1] = test: Thymus involution (systemic side effect) in local granuloma sac model; assay type: in vivo, rat; conditions: 10th day
Excerpt: (§2) Two principal (essential) demands are set up against topically used steroid antiinflammatory drugs: a) they should be as active as possible in various animal experiments used for investigating the antiinflammatory action; and b) they should induce the lowest harmful systemic side effect. This latter effect can be well characterized by the thymus weight-decreasing action (involution). The possibly lowest toxicity (i.e. the possibly highest LD50 value) is an essential demand for any active agent (drug) used in therapy.
as §1
Groups consisting of 10 female RG Hann Wistar rats each weighing 130 to 150 g were used. After shaving the back of the animals 25 ml of air were injected beneath the back skin and 1 ml of 2% croton oil inducing inflammation was introduced to the air sac. After 5 days the content of the sac was removed by suction and once 3 doses each of the glucocorticoids to be tested or budesonide respectively, in a volume of 0.5 ml suspension in Tween 80 were administered by an injection syringe. On the 10th day following the start of the experiment the animals were sacrificed and the exudate liquid of the sac (expressed as ml) was measured. The percentage of the antiinflammatory effect was calculated based on the decrease in the volume of exudate related to that of the control.
Then, the thymi of the animals were excised and the harmful systemic side effect of the test compounds was calculated as a percentage based on the comparison of the thymus weight of animals treated with the test compounds to that of the untreated control group.

[2] = Comparative acute toxicity (LD50), rats; conditions: rat, in vivo, 2-week observation
Protocol: (§3) 1) Comparative study on the acute toxicity
(§4) Animal groups consisting of 10 CFLP mice or RG Hann Wistar rats each of both sexes were used. The doses causing the death of 50% of the animals (LD50 values) within a 2-week observation period following subcutaneous (s.c.) or oral (p.o.) administration were determined.

thymus [3] = test: Thymus involution (systemic side effect) in croton oil-induced contact dermatitis model; assay type: in vivo, rat; conditions: 48th hour
Excerpt: as §2
(§5) 2) The croton oil-induced contact dermatitis model
(§6) Infantile female rats weighing 45 to 55 g were used. Animals had previously been selected for this test, the ear weight of which increased at least by 100% under effect of a treatment with 2% croton oil.
(§7) The test compounds were dissolved in a 2% croton oil mixture in various concentrations and then applied onto the ears of the animals. The control group was treated only with the croton oil inducing inflammation. Six hours after treatment the ears of the animals were cut off and weighed. For evaluation, the diminution of the ear weight increase was expressed as "percentage of inhibition", in comparison to the control treated with croton oil only. In the 48th hour the thymi of the animals were excised and the harmful systemic side effect of the test compounds was evaluated by comparing their thymus weight to that of the control animals.

[4] = Comparative acute toxicity (LD50), mice; conditions: mouse, in vivo, 2-week observation
Protocol: as §3, §4

experimental asthma = test: Experimental asthma model (ovalbumin); assay type: in vivo, guinea-pig; conditions: 50 mg/kg i.p. 20 hours before i.v. ovalbumin provocation; for Dyspnoea (percentage occurrence): control 33; for Survival: control 66
Excerpt: 4) The experimental asthma model
This test was used to investigate the antiasthmatic effect of the test compounds.
It is known that by ovalbumin (OA) treatment an experimental asthma can be induced on guinea-pigs which is accompanied by dyspnoea and causes the death of the animals in severe cases. This test is useful to detect an eventual antiasthmatic effect of the test compounds.
Guinea-pigs of both sexes weighing 300 to 400 g each were used. The experimental animals were sensitized by i.p. ovalbumin (10/ μg of OA+100 mg of aluminum hydroxide/animal) and after 30 days they were provoked by the intravenous (i.v.) administration of 100 mg/kg of OA. Both the test compounds and budesonide used as reference substance were given 50 mg/kg i.p. dose 20 hours before the provocation. The percentage occurrence of dyspnoea and the survival were observed.

[5] = system: croton oil-induced contact dermatitis; test: Croton oil-induced contact dermatitis model, ear weight; assay type: in vivo, rat; conditions: for Ear weight / Inhibition (of ear weight increase): topical on ear, 6 hours; for Inhibition (of ear weight increase): vs croton oil control; for Relative activity: relative to budesonide = 100, on 10 μg/ml line
Protocol: as §5, §6, §7

Row | Structure (SMILES) | Exudate (local granuloma sac; 0.22 μg/sac) | Inhibition (decrease in volume of exudate) (local granuloma sac; 0.22 μg/sac) | Exudate (local granuloma sac; 2.00 μg/sac) | Inhibition (decrease in volume of exudate) (local granuloma sac; 2.00 μg/sac) | Exudate (local granuloma sac; 18.00 μg/sac) | Inhibition (decrease in volume of exudate) (local granuloma sac; 18.00 μg/sac) | Relative activity (local granuloma sac) | Thymus involution (thymus [1]; 0.22 μg/sac) | Thymus involution (thymus [1]; 2.00 μg/sac) | Thymus involution (thymus [1]; 18.00 μg/sac) | LD50 at 336 h ([2]; po, female) | LD50 at 336 h ([2]; po, male) | LD50 at 336 h ([2]; sc, female) | LD50 at 336 h ([2]; sc, male) | Thymus involution (thymus [3]; 1 μg/ml topical on ear) | Thymus involution (thymus [3]; 10 μg/ml topical on ear) | Thymus involution (thymus [3]; 100 μg/ml topical on ear) | LD50 at 336 h ([4]; po, female) | LD50 at 336 h ([4]; po, male) | LD50 at 336 h ([4]; sc, female) | also measured
1 | CCCC1O[C@@H]2C[C@H]3[C@@H]4CCC5=CC(=O)C=C[C@]5(C)[C@H]4[C@@H](O)C[C@]3(C)[C@]2(C(=O)CO)O1 (stereo partly drawn) [Budesonide, (22RS)-11β,21-dihydroxy-16α,17-butylidenedioxypregna-1,4-dien-3,20-dione, reference compound] | 6.38 ± 0.4 mL | 49.89% | 4.00 ± 0.3 mL | 68.58% | 1.84 ± 0.5 mL | 85.55% | 100 | 0% | 0% | 24.43% | 2110 mg/kg | 3400 mg/kg | 71.5 mg/kg | 59.4 mg/kg | 9.2% | 3.9% | 26.1% | 1360 mg/kg | 1080 mg/kg | 109 mg/kg | LD50 at 336 h ([4]; sc, male): 131 mg/kg; Dyspnoea (percentage occurrence) (experimental asthma): 20%; Survival (experimental asthma): 60%; Ear weight ([5]; 1 μg/ml in 2% croton oil): 144.71 ± 2.0 mg; Inhibition (of ear weight increase) ([5]; 1 μg/ml): 19.43%; Ear weight ([5]; 10 μg/ml in 2% croton oil): 127.78 ± 2.0 mg; Inhibition (of ear weight increase) ([5]; 10 μg/ml): 39.53%; Ear weight ([5]; 100 μg/ml in 2% croton oil): 117.07 ± 2.7 mg; Inhibition (of ear weight increase) ([5]; 100 μg/ml): 52.24%; Relative activity [5]: 100
2 | CC(C)C1O[C@@H]2C=C3[C@@H]4CCC5=CC(=O)C=C[C@]5(C)[C@H]4[C@@H](O)C[C@]3(C)[C@]2(C(=O)CO)O1 (stereo partly drawn) [Ex. No. 6, 11β,16α,17,21-tetrahydroxypregna-1,4,14-trien-3,20-dion-16,17-cyclic isobutyraldehyde acetal] | 6.52 ± 0.6 mL | 48.79% | 5.08 ± 0.4 mL | 60.10% | 1.69 ± 0.3 mL | 86.73% | 71 | 4.98% | 4.98% | 6.22% | > 3000 mg/kg | > 4000 mg/kg | 164 mg/kg | 162 mg/kg | 0% | 1.7% | 0% | 2790 mg/kg | 2930 mg/kg | 634 mg/kg | LD50 at 336 h ([4]; sc, male): 333 mg/kg; Dyspnoea (percentage occurrence) (experimental asthma): 0%; Survival (experimental asthma): 100%; Ear weight ([5]; 1 μg/ml in 2% croton oil): 144.40 ± 3.5 mg; Inhibition (of ear weight increase) ([5]; 1 μg/ml): 19.80%; Ear weight ([5]; 10 μg/ml in 2% croton oil): 126.90 ± 2.7 mg; Inhibition (of ear weight increase) ([5]; 10 μg/ml): 40.57%; Ear weight ([5]; 100 μg/ml in 2% croton oil): 115.10 ± 2.6 mg; Inhibition (of ear weight increase) ([5]; 100 μg/ml): 54.57%; Relative activity [5]: 118
